Values of other authors in US10947168B2, “Solvent systems for dicyandiamide and/or alkyl thiophosphoric triamide and use in agricultural applications” (RHODIA OPERATIONS, priority 2014, dated 2021).

solubility in water: about 41 g/l
Compound: N#CNC(=N)N [Dicyandiamide]
